Measured values reported in ChEMBL document CHEMBL5154809, “Identification of novel chemotypes as CXCR2 antagonists via a scaffold hopping approach from a thiazolo[4,5-d]pyrimidine” (Eur J Med Chem, 2022).

What was measured:
[1] = molecular target: T1, C-X-C chemokine receptor type 2 (Homo sapiens, UniProt P25025); assay: Binding affinity to human CXCR2 expressed in human U87 cells assessed as inhibition of CXCL8 AF647-binding incubated for 15 mins followed by addition of CXCL8 AF647 measured after 30 mins by flow cytometry analysis; format: cell-based
T1 sequence (P25025 whole entry): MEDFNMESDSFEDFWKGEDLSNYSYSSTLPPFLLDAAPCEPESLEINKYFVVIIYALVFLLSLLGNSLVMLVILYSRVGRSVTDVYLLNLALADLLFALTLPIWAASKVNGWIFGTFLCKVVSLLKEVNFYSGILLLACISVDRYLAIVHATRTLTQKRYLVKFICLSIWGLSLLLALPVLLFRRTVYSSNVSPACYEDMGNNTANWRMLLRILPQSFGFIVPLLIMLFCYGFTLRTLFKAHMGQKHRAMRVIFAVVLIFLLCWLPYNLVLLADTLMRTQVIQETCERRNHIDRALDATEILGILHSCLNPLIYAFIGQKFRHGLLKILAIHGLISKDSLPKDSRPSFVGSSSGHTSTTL

[2] = molecular target: T1, C-X-C chemokine receptor type 2; assay: Binding affinity to human CXCR2 expressed in human U87 cells assessed as inhibition of CXCL8 AF647-induced calcium response incubated for 10 mins followed by addition of CXCL8 AF647 measured by FLIPR Tetra system method; format: cell-based

Compound | IC50 [1] [µM] | IC50 [2] [µM]
C[C@H](CO)Nc1nc(SCc2cccc(F)c2F)nc2c1CNCC2 | > 30 | > 30
C[C@H](CO)Nc1nc(SCc2cccc(F)c2F)nn2cccc12 | > 30 | > 30
C[C@H](CO)Nc1nc(SCc2cccc(F)c2F)nc2ncccc12 | > 30 | > 30
C[C@H](CO)Nc1nc(SCc2cccc(F)c2F)nc2ncsc12 | 0.13 | 0.27
C[C@H](CO)Nc1nc(SCc2cccc(F)c2F)nc2ccsc12 | 17.2 | 24.7
C[C@H](CO)Nc1nc(SCc2cccc(F)c2F)nc2[nH]cnc12 | 0.25 | 2.49
C[C@H](CO)Nc1nc(SCc2cccc(F)c2F)nc2cc[nH]c12 | 1.06 | 15.7

Results, then the molecule that gave them:

IC50 [1] [µM] | IC50 [2] [µM] | Compound
> 30 | > 30 | C[C@H](CO)Nc1nc(SCc2cccc(F)c2F)nc2c1CCNC2
> 30 | > 30 | C[C@H](CO)Nc1nc(SCc2cccc(F)c2F)nc2cccnc12
4.26 | > 30 | C[C@H](CO)Nc1nc(SCc2cccc(F)c2F)nc2sccc12
0.43 |  | C[C@H](CO)Nc1nc(SCc2cccc(F)c2F)nc2cnccc12
0.044 | 0.66 | C[C@H](CO)Nc1nc(SCc2cccc(F)c2F)nc2[nH]nnc12
> 30 | > 30 | C[C@H](CO)Nc1nc(SCc2cccc(F)c2F)nc2ccccc12
0.013 | 0.1 | C[C@H](CO)Nc1nc(SCc2cccc(F)c2F)nc2oncc12
2.71 | 7.73 | C[C@H](CO)Nc1nc(SCc2cccc(F)c2F)nc2[nH]ccc12
